From US8440638B2, “Compositions and methods for modulating calcium flux, glucose homeostasis and apoptosis” (Wisconsin Alumni Research Foundation, priority 2004, dated 2013)

Experiments:
[1] = tested on: cellular levels of OAADPr in HEK-293 cells; assay: Detection of cellular OAADPr by HPLC fractionation and MALDI mass spectrometry; assay type: cell-based; settings: puromycin-treated vs mock-treated HEK-293 cells
Procedure: Shown is the development of whole cell currents over time in TRPM2-expressing HEK-293 cells. Bath solution was standard ringer's, and pipette solution was Cs-based and included 10 mM EGTA to buffer intracellular Ca^2+ to 10 nM. The patch pipette contained various concentrations of (FIG. 1a) ADPr, (FIG. 1b) OAADPr (FIG. 1c) OAADPr and puromycin as indicated in the figure. FIG. 1d.) Cytoplasmic OAADPr esterase activity is inhibited by puromycin. 200 μM O-[^3H]AADPr and 0-100 μM puromycin were added to cytoplasmic HEK-293 extract for 30 min. Percent hydrolysis of O-[^3H]AADPr to [^3H]acetate was measured as described hereinbelow. FIG. 1e.) Nuclear OAADPr acetyltransferase activity is not inhibited by puromycin. HEK-293 nuclear extract was incubated with 200 μM O-[^3H]AADPr in the presence or absence of 100 μM puromycin for 60 min. The reactions were quenched and resolved by HPLC. The radioactivity in collected fractions was determined by liquid scintillation counting. FIGS. 1f-g.) In vivo detection of OAADPr. Mass spectrum of HEK-293 generated OAADPr (peak m/z of 602.0894; the theoretical m/z for OAADPr is 602.0895) after puromycin treatment, with authentic [^13C]-OAADPr (peak m/z of 603.0851 and isotopic distribution of 604.0878 and 605.0928) as a standard. Peak 599.3691 is from the matrix. […]

[2] = target: T1, TRPM2 channel (Homo sapiens, UniProt O94759); assay: Whole cell patch clamp, TRPM2 channel gating in tet-induced TRPM2-expressing HEK-293 cells; assay type: cell-based
T1 construct: expressed in transfected cells; host or cells: tetracycline-inducible HEK-293
T1 sequence (O94759 whole entry): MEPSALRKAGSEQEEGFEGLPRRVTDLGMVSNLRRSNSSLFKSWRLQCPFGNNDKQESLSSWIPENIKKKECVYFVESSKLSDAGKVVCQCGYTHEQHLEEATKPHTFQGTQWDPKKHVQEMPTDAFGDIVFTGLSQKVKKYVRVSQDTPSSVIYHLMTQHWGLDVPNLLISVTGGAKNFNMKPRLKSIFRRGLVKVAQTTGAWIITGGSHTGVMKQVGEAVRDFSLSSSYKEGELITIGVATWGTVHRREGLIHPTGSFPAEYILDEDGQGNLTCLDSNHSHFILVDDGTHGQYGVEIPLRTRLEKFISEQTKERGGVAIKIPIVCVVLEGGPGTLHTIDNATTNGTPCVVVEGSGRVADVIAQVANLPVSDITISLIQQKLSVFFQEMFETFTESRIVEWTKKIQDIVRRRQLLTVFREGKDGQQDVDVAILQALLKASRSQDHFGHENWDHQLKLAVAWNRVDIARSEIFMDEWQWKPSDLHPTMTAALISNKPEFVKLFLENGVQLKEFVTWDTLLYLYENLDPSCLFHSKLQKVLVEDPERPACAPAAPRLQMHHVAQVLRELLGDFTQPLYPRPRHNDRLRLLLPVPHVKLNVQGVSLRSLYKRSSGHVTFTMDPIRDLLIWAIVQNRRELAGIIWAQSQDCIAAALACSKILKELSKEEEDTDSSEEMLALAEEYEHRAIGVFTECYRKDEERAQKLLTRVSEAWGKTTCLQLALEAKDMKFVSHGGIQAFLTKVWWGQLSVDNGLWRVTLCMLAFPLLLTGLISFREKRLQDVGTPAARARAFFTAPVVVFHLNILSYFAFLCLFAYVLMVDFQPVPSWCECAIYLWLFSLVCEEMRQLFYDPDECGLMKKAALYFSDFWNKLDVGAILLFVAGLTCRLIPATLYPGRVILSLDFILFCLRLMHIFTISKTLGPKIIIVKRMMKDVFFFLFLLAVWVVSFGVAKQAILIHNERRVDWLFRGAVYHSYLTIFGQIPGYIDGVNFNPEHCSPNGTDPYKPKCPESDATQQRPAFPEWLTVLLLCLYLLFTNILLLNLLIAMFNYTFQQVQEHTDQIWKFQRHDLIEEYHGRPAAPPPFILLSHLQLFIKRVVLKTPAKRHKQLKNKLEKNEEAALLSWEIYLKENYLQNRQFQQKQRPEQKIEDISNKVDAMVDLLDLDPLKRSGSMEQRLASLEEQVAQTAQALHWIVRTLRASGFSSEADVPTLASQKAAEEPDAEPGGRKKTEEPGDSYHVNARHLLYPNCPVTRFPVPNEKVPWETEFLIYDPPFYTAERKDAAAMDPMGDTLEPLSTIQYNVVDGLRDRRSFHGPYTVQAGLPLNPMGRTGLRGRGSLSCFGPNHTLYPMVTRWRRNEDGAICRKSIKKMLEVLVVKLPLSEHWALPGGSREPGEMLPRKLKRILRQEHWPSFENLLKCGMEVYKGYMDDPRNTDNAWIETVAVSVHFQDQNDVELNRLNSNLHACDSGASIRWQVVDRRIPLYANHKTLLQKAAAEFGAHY
Procedure: Shown is the development of whole cell currents over time in TRPM2-expressing HEK-293 cells. Bath solution was standard ringer's, and pipette solution was Cs-based and included 10 mM EGTA to buffer intracellular Ca^2+ to 10 nM. The patch pipette contained various concentrations of (FIG. 1a) ADPr, (FIG. 1b) OAADPr (FIG. 1c) OAADPr and puromycin as indicated in the figure. FIG. 1d.) Cytoplasmic OAADPr esterase activity is inhibited by puromycin. 200 μM O-[^3H]AADPr and 0-100 μM puromycin were added to cytoplasmic HEK-293 extract for 30 min. Percent hydrolysis of O-[^3H]AADPr to [^3H]acetate was measured as described hereinbelow. FIG. 1e.) Nuclear OAADPr acetyltransferase activity is not inhibited by puromycin. HEK-293 nuclear extract was incubated with 200 μM O-[^3H]AADPr in the presence or absence of 100 μM puromycin for 60 min. The reactions were quenched and resolved by HPLC. The radioactivity in collected fractions was determined by liquid scintillation counting. FIGS. 1f-g.) In vivo detection of OAADPr. Mass spectrum of HEK-293 generated OAADPr (peak m/z of 602.0894; the theoretical m/z for OAADPr is 602.0895) after puromycin treatment, with authentic [^13C]-OAADPr (peak m/z of 603.0851 and isotopic distribution of 604.0878 and 605.0928) as a standard. Peak 599.3691 is from the matrix.
Patch clamp electrophysiology was performed as previously described (23). Briefly, cells were patch clamped in the whole cell configuration at 25° C. using pipettes with resistances ranging from 2-3 MOhms. Currents were recorded on an EPC9 patch clamp amplifier with automatic capacitance compensation using a protocol generating a 50 msec voltage ramp from −100 to +100 mv every two seconds at a holding potential of 0 mv (appropriately corrected for liquid junction potential). Bath solution included 150 mM NaCl, 2.8 mM KCl, 5 mM CsCl, 1 mM CaCl2, 2 mM MgCl2, and 10 mM Hepes (pH 7.2). Pipette solution included 135 mM CsGlutamate, 1 mM MgCl2, 8 mM NaCl, 10 mM Hepes (pH 7.2), and 10 mM EGTA. […]

COc1ccc(C[C@H](N)C(=O)N[C@H]2[C@@H](O)[C@H](n3cnc4c(N(C)C)ncnc43)O[C@@H]2CO)cc1 [puromycin]
cellular levels of OAADPr after treatment [1]: significantly detectable levels
effect on TRPM2 channel activity, compound alone ([2]; 100 μM puromycin alone, data not shown): no affect
enhancement of OAADPr gated TRPM2 channel activity ([2]; 125-250 μM puromycin in the patch pipette with OAADPr): no significant enhancement
